Assay [1] addresses T1, PD-1/PD-L1 interaction (Homo sapiens, UniProt Q9NZQ7).
T1 construct: expressed in transfected cells; host or cells: CHO cells (aAPC-PD-L1) co-cultured with Jurkat cells overexpressing PD-1 and an NFAT-luciferase reporter
Kind of assay: PD-1/PD-L1 NFAT reporter co-culture assay. The assay is classed as cell-based. The conditions noted are these: Jurkat PD-1 NFAT-luciferase cells co-cultured with aAPC-PD-L1 CHO cells, 6 hrs at 37° C.; read-out: EC50 NFAT Luciferase. The procedure, abridged:
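CHO aAPC-PD-L1 seeded overnight; PD-1/NFAT-luc Jurkat + cpd in RPMI 1640, 2% FBS added at once; 6 h, 37 °C; ONE-Glo luminescence; EC50, 4-parameter fit.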

Assay [2] has as its target T2, interaction between the recombinant extracellular domain (ECD) of PD-1 and native cell-bound PD-L1 (Homo sapiens, UniProt Q9NZQ7).
T2 construct: expressed in transfected cells
The experiment in a line: CHO/PD-L1 cell capture assay. The assay is classed as cell-based. The conditions noted are these: CHO cells overexpressing PD-L1, pre-incubated 1 hr with compound, captured on biotinylated Fc-PD-1 coated plates, 75 min at room temperature. As for the experimental part: EC50-CHO/PD-L1-Capture Assay:
Compounds were tested in a cell capture assay to determine if they can specifically block the interaction between the recombinant extracellular domain (ECD) of PD-1 and native cell-bound PD-L1. Binding affinity of stable CHO cells overexpressing PD-L1 with its cognate recombinant ligand coated on plates was measured by counting the number of ‘captured’ cells. High-capacity streptavidin- coated plates were incubated with biotylated-Fc-PD-1 for 2 hours in PBS. Unbound ligand was washed out. CHO-PD-L1 cells (resuspended in PBS pH 7.4, 0.5 mM EDTA, and 2% bovine serum albumin) were pre-incubated for 1 hr with compound, dispensed into each PD-1 ECD coated well and then incubated for 75 min at room temperature. To stop the capture assay, a fixative/staining solution (final concentrations are 1.3% glutaraldehyde and 1.67 μM Draq5) was gently added to the cells and incubated for 2 hrs at room temperature. Unbound cells were then washed out and ‘captured’ cells were enumerated using a high-content microscopy system. EC50 values were calculated from the fit of the dose-response curves to a four-parameter equation. Representative data are shown below in Table 2.

pEC50: −log10 of the molar value.

T2 sequence (Q9NZQ7 19-290): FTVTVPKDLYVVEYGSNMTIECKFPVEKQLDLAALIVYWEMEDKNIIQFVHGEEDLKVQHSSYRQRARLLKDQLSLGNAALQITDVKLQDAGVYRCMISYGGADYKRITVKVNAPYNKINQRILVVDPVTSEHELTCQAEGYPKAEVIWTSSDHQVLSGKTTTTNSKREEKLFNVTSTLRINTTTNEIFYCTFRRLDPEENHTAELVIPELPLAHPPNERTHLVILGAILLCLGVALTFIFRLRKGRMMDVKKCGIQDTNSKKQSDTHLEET
T1 sequence (Q9NZQ7 19-290): as above

Regarding `Cc1c(COc2cc(OCc3cncc(C#N)c3)c(CNC[C@@H](O)CC(=O)O)cc2Cl)cccc1-c1cccc(-c2ccc(OCCNC[C@@H](O)CC(=O)O)c(Cl)c2)c1C` [Example 288, (S)-4-((4-((4″-(2-(((S)-3-carboxy-2-hydroxypropyl)amino)ethoxy)-3″-chloro-2,2′-dimethyl-[1,1′:3′,1″-terphenyl]-3-yl)methoxy)-5-chloro-2-((5-cyanopyridin-3-yl)methoxy)benzyl)amino)-3-hydroxybutanoic acid], the negative-log EC50 (pEC50) (as a rule, −log10 of the EC50, conventionally taken in molar units) in assay [1] is 7.24; in assay [2], 7.99.
On to `COc1nc(OCc2cccc(-c3cccc(COc4nc(OC)c(CN[C@H](C)[C@@H](O)CC(=O)O)cc4Cl)c3C)c2C)c(Cl)cc1CN[C@H](C)[C@@H](O)CC(=O)O` [Example 182, (3S,3′S,4R,4′R)-4,4′-((((((2,2′-dimethyl-[1,1′-biphenyl]-3,3′-diyl)bis(methylene))bis(oxy))bis(5-chloro-2-methoxypyridine-6,3-diyl))bis(methylene))bis(azanediyl))bis(3-hydroxypentanoic acid)], for which the figures for the pEC50 in assay [1] and in assay [2] were 6.36 and 7.04, respectively.
With `COc1nc(OCc2cccc(-c3cccc(COc4nc(OC)c(CNC[C@@H](O)CC(=O)O)cc4C4CC4)c3C)c2C)c(C2CC2)cc1CNC[C@@H](O)CC(=O)O` [Example 55, (3S,3′S)-4,4′-((((((2,2′-dimethyl-[1,1′-biphenyl]-3,3′-diyl)bis(methylene))bis(oxy))bis(5-cyclopropyl-2-methoxypyridine-6,3-diyl))bis(methylene))bis(azanediyl))bis(3-hydroxybutanoic acid)], the pEC50 in assay [1] is 5.82; in assay [2], 6.50.
Take `COc1nc(OCc2cccc(-c3cccc(COc4nc(OC)c(CNCCCC(N)=O)cc4Br)c3C)c2C)c(Br)cc1CNCCCC(N)=O` [Example 116, 4,4′-((((((2,2′-dimethyl-[1,1′-biphenyl]-3,3′-diyl)bis(methylene))bis(oxy))bis(5-bromo-2-methoxypyridine-6,3-diyl))bis(methylene))bis(azanediyl))dibutanamide]: the pEC50 was 6.15 in assay [1] and 6.87 in assay [2].
Taken in the same sequence, the figures for `COc1nc(OCc2cccc(-c3cccc(COc4nc(OC)c(CN[C@@](C)(CO)C(=O)O)cc4Br)c3C)c2C)c(Br)cc1CN[C@@](C)(CO)C(=O)O` [Example 45, (2S,2′S)-2,2′-((((((2,2′-dimethyl-[1,1′-biphenyl]-3,3′-diyl)bis(methylene))bis(oxy))bis(5-bromo-2-methoxypyridine-6,3-diyl))bis(methylene))bis(azanediyl))bis(3-hydroxy-2-methylpropanoic acid)] were 7.12 and 6.78.
Turning to `COc1nc(O[C@H]2CCc3c(-c4cccc5c4CC[C@@H]5Oc4nc(OC)c(CNCCO)cc4Br)cccc32)c(Br)cc1CNCCO` [Example 10, 2,2′-((((((1S,1′S)-2,2′,3,3′-tetrahydro-1H,1′H-[4,4′-biindene]-1,1′-diyl)bis(oxy))bis(5-bromo-2-methoxypyridine-6,3-diyl))bis(methylene))bis(azanediyl))bis(ethan-1-ol)], the negative-log EC50 (pEC50) was 6.30 in assay [1] and 6.73 in assay [2].
With `Cc1c(COc2nc(OCc3cc(C#N)ccn3)c(CNC[C@@H](O)CC(=O)O)cc2Br)cccc1-c1cccc(COc2nc(OCc3cc(C#N)ccn3)c(CNC[C@@H](O)CC(=O)O)cc2Br)c1C` [Example 148, (3S,3′S)-4,4′-((((((2,2′-dimethyl-[1,1′-biphenyl]-3,3′-diyl)bis(methylene))bis(oxy))bis(5-bromo-2-((4-cyanopyridin-2-yl)methoxy)pyridine-6,3-diyl))bis(methylene))bis(azanediyl))bis(3-hydroxybutanoic acid)], the negative logarithm of the EC50 (pEC50) is 6.91 in assay [1] and 6.88 in assay [2].
Consider `Cc1c(COc2cc(OCc3cncc(C#N)c3)c(CNC[C@@H](O)CC(=O)O)cc2Cl)cccc1-c1cccc(-c2ccc(OCCNC[C@@H](O)CC(=O)O)cc2F)c1C` [Example 111, (S)-4-((4-((4″-(2-(((S)-3-carboxy-2-hydroxypropyl)amino)ethoxy)-2″-fluoro-2,2′-dimethyl-[1,1′:3′,1″-terphenyl]-3-yl)methoxy)-5-chloro-2-((5-cyanopyridin-3-yl)methoxy)benzyl)amino)-3-hydroxybutanoic acid], for which the pEC50 was 6.89 in assay [1] and 7.34 in assay [2].
As for `COc1nc(O[C@H]2CCc3c(-c4cccc5c4CC[C@@H]5Oc4nc(OC)c(CNCC(=O)O)cc4Cl)cccc32)ccc1CNCC(=O)O` [Example 1, ((6-(((1S,1′S)-1′-((5-(((carboxymethyl)amino)methyl)-3-chloro-6-methoxypyridin-2-yl)oxy)-2,2′,3,3′-tetrahydro-1H,1′H-[4,4′-biinden]-1-yl)oxy)-2-methoxypyridin-3-yl)methyl)glycine], the values for the pEC50 in assay [1] and in assay [2] were 6.29 and 6.42, respectively.
As for `COc1nc(OCc2cccc(-c3cccc(COc4nc(OC)c(CNC[C@H](O)CC(=O)O)cc4Cl)c3C)c2C)c(Cl)cc1CNC[C@H](O)CC(=O)O` [Example 49, (3R,3′R)-4,4′-((((((2,2′-dimethyl-[1,1′-biphenyl]-3,3′-diyl)bis(methylene))bis(oxy))bis(5-chloro-2-methoxypyridine-6,3-diyl))bis(methylene))bis(azanediyl))bis(3-hydroxybutanoic acid)], the pEC50 in assay [1] was 6.56; in assay [2], 6.91.
Taken in the same sequence, the figures for `COc1nc(OCc2cccc(-c3cccc(COc4nc(OC)c(CN5C[C@@H](O)C[C@H]5C(=O)O)cc4Cl)c3C)c2C)c(Cl)cc1CN1C[C@@H](O)C[C@H]1C(=O)O` [Example 48, (2S,2′S,4S,4'S)-1,1′-(((((2,2′-dimethyl-[1,1′-biphenyl]-3,3′-diyl)bis(methylene))bis(oxy))bis(5-chloro-2-methoxypyridine-6,3-diyl))bis(methylene))bis(4-hydroxypyrrolidine-2-carboxylic acid)] were 6.39 and 6.53.
For `COCCCOc1nc(OCc2cccc(-c3cccc(COc4nc(OCCCOC)c(CNC[C@@H](O)CC(=O)O)cc4Br)c3C)c2C)c(Br)cc1CNC[C@@H](O)CC(=O)O` [Example 149, (3S,3′S)-4,4′-((((((2,2′-dimethyl-[1,1′-biphenyl]-3,3′-diyl)bis(methylene))bis(oxy))bis(5-bromo-2-(3-methoxypropoxy)pyridine-6,3-diyl))bis(methylene))bis(azanediyl))bis(3-hydroxybutanoic acid)], the results for the pEC50 in assay [1] and in assay [2] were 6.18 and 6.56, respectively.
As to `COc1nc(OCc2cccc(-c3cccc(COc4nc(OC)c(CNC5(C#N)CCC5)cc4Cl)c3C)c2C)c(Cl)cc1CNC1(C#N)CCC1` [Example 231, 1,1′-((((((2,2′-dimethyl-[1,1′-biphenyl]-3,3′-diyl)bis(methylene))bis(oxy))bis(5-chloro-2-methoxypyridine-6,3-diyl))bis(methylene))bis(azanediyl))bis(cyclobutane-1-carbonitrile)], the figures for the negative logarithm of the EC50 (pEC50) in assay [1] and in assay [2] were 6.02 and 6.56, respectively.
For the compound `COc1nc(OCc2cccc(-c3cccc(COc4nc(OC)c(CN(C)CC(=O)O)cc4Cl)c3C)c2C)c(Cl)cc1CN(C)CC(=O)O` [Example 76, 2,2′-((((((2,2′-dimethyl-[1,1′-biphenyl]-3,3′-diyl)bis(methylene))bis(oxy))bis(5-chloro-2-methoxypyridine-6,3-diyl))bis(methylene))bis(methylazanediyl))diacetic acid], the values for the negative-log EC50 (pEC50) in assay [1] and in assay [2] were 5.98 and 7.08, respectively.
`CNC(=O)CCOc1nc(OCc2cccc(-c3cccc(COc4nc(OCCC(=O)NC)c(CNC[C@@H](O)CC(=O)O)cc4Cl)c3C)c2C)c(Cl)cc1CNC[C@@H](O)CC(=O)O` [Example 134, (3S,3′S)-4,4′-((((((2,2′-dimethyl-[1,1′-biphenyl]-3,3′-diyl)bis(methylene))bis(oxy))bis(5-chloro-2-(3-(methylamino)-3-oxopropoxy)pyridine-6,3-diyl))bis(methylene))bis(azanediyl))bis(3-hydroxybutanoic acid)]: the figures for the negative logarithm of the EC50 (pEC50) in assay [1] and in assay [2] were 6.18 and 6.95, respectively.
As for `COc1nc(OCc2cccc(-c3cccc(COc4nc(OC)c(CN[C@@H]5CC[C@H](C(=O)O)C5)cc4Cl)c3C)c2C)c(Cl)cc1CN[C@@H]1CC[C@H](C(=O)O)C1` [Example 185, (1S,1′S,3R,3′R)-3,3′-((((((2,2′-dimethyl-[1,1′-biphenyl]-3,3′-diyl)bis(methylene))bis(oxy))bis(5-chloro-2-methoxypyridine-6,3-diyl))bis(methylene))bis(azanediyl))bis(cyclopentane-1-carboxylic acid)], the pEC50 in assay [1] is 6.71; in assay [2], 6.56.

These data come from patent US12590062B2, “PD-1/PD-L1 inhibitors” (Gilead Sciences, Inc., priority 2017, dated 2026).
